In patent US3932407A, “Optionally substituted 1,2,3,5-tetrahydroimidezo(2,1-b)-quinazolin-2-ones and 6(H)-1,2,3,4-tetrahydropyimido(2,1-b)quinazolin-2-ones” (Bristol-Myers Company, priority 1974, dated 1976):
≈ marks a conversion by molar mass, not a printed value.

Experiments:
blood pressure = test: Blood pressure of genetically hypertensive rats, P.O. 50 mg/kg; assay type: in vivo; conditions: 50 mg./kg. orally, tested as hydrochloride salts, + increase, - decrease in b.p.; for change in vivo at 50 mg/kg: Rattus norvegicus, po
Method: The blood pressure of unanesthetized rats and dogs was measured directly by means of a transducer attached to an intra-arterial cannula and in anesthetized dogs by a mercury manometer attached to a carotid cannula.
The compounds of the instant invention were tested as the hydrochloride salts by the above method in genetically hypertensive rats in doses of 50 mg./kg. orally.

[1] = tested on: adenosine diphosphate (ADP) induced platelet aggregation; test: In vitro inhibition of ADP induced platelet aggregation (aggregometer method of Born, modified); assay type: cell-based; conditions: Oryctolagus cuniculus; rabbit platelet rich plasma, ADP 0.5 mcg./ml.
Method: (§1) The aggregometer method of Born (1), as modified by Mustard et al. (2) was used to assess the in vitro activity of the various compounds as to inhibition of adenosine diphosphate (ADP) and collagen induced platelet aggregation. Platelet rich plasma was separated by centrifugation from citrated (3.8 percent) rabbit blood. ADP in final concentration of 0.5 mcg./ml. or 0.05 ml. of a collagen suspension prepared according to the method described by Evans et al. (3) was used to induce aggregation. The various compounds tested were dissolved in dimethylsulfoxide (DMSO) so that 5 mcl. added to the platelet rich plasma would yield the desired test concentration. Vehicle control trials were done and compared with aggregation induced in platelet rich plasma containing various concentrations of the test compounds. Dose response curves were obtained and Effective Concentration (EC50) values calculated.
(§2) 2. mustard, J. F., Hegardt, B. Rowsell, H. C. and MacMillan, R. L., J. Lab. Clin. Med. 64, 548 (1964).

[2] = tested on: collagen induced platelet aggregation; test: In vitro inhibition of collagen induced platelet aggregation (aggregometer method of Born, modified); assay type: cell-based; conditions: Oryctolagus cuniculus; rabbit platelet rich plasma, 0.05 ml. collagen suspension
Method: as §1, §2
3. Evans, G. Marian M. C., Packham, M. A., Nishizawa, E. E., Mustard, J. F. and Murphy, E. A., J. Exp. Med., 128, 877 (1968).

[3] = tested on: ADP induced platelet aggregation; test: In vivo/in vitro ADP induced platelet aggregation after I.P. dosing of rabbits; design: species or system rabbit; conditions: Oryctolagus cuniculus, ip, 1 to 2 hours after dosing, dose for 50% inhibition of aggregation
Method: (§3) *In vivo/In vitro testing:
(§4) Before dosing the animals, blood samples are taken. The blood is centrifuged to obtain the blood platelet-rich plasma. Aggregation of this plasma is induced with ADP or collagen. This is the control.
(§5) The animals are then dosed with the compounds to be tested (orally or parenterally). Depending upon the route of administration, 1 to 2 hours are allowed to elapse after dosing. Blood is drawn and the same procedure employed as for the control in untreated animals.
The dose required to produce 50% inhibition of the aggregation is determined by dose response data obtained in this manner.

[4] = tested on: ADP induced platelet aggregation; test: In vivo/in vitro ADP induced platelet aggregation after P.O. dosing of dogs; design: species or system dog; conditions: 1 to 2 hours after dosing
Method: as §3, §4, §5

| EC50 [1] | EC50 [2] | SMILES | change in vivo at 50 mg/kg (blood pressure) | ED50 [3] | In Vivo/In Vitro Dogs P.O. 5 mg./kg. ADP % Inhibition [4] | Blood Pressure % Change Rats P.O. 50 mg./kg. (blood pressure) |
| --- | --- | --- | --- | --- | --- | --- |
| 0.5 µg/mL (≈ 2.48 µM) | 0.1 µg/mL (≈ 0.497 µM) | Cc1cccc2c1CN1CC(=O)NC1=N2 [Compound 10, 6-methyl-1,2,3,5-tetrahydroimidazo-[2,1-b]quinazolin-2-one] | -37 ± 8% | 0.6 mg/kg | 76% |  |
| 6 µg/mL (≈ 25.5 µM) | 0.7 µg/mL (≈ 2.97 µM) | O=C1CCN2Cc3c(Cl)cccc3N=C2N1 [Compound 20] | -12 ± 1% | 8 mg/kg |  |  |
| 0.4 µg/mL (≈ 1.62 µM) |  | COc1ccc2c(c1OC)CN1CC(=O)NC1=N2 [Compound 16, 6,7-dimethoxy-1,2,3,5-tetrahydroimidazo[2,1-b]quinazolin-2-one] |  | 0.7 mg/kg |  |  |
| 2 µg/mL (≈ 9.94 µM) | 7 µg/mL (≈ 34.8 µM) | CC1c2ccccc2N=C2NC(=O)CN21 (stereo not drawn) [Compound 29] | -28% | 35 mg/kg |  |  |
| 6 µg/mL (≈ 27.1 µM) | 1.5 µg/mL (≈ 6.77 µM) | O=C1CN2Cc3ccc(Cl)cc3N=C2N1 [Compound 4] | -14% | 18 mg/kg |  |  |
| 2 µg/mL (≈ 8.65 µM) | 0.4 µg/mL (≈ 1.73 µM) | COc1cccc2c1CN1CCC(=O)NC1=N2 [Compound 25] | -5 ± 3% | 8 mg/kg |  |  |
|  |  | Cc1cccc2c1C(C)N1CC(=O)NC1=N2 (stereo not drawn) [Compound 50, 5,6-dimethyl-1,2,3,5-tetrahydroimidazo[2,1-b]quinazolin-2-one] | -49% |  |  |  |
|  |  | Cc1cccc2c1N=C1NC(=O)CCN1C2 [Compound 24] | -19% |  |  |  |
| 2 µg/mL (≈ 9.94 µM) | 0.3 µg/mL (≈ 1.49 µM) | Cc1ccc2c(c1)CN1CC(=O)NC1=N2 [Compound 11] |  | > 10 mg/kg |  |  |
| 5 µg/mL (≈ 20.2 µM) |  | COc1cc2c(cc1OC)N=C1NC(=O)CN1C2 [Compound 17] | 26% | 4 mg/kg | 0% |  |
|  |  | Cc1ccc2c(c1)C(C)N1CC(=O)NC1=N2 (stereo not drawn) [Compound 51, 5,7-Dimethyl-1,2,3,5-tetrahydroimidazo-[2,1-b]quinazolin-2-one] | -34% |  |  |  |
|  |  | O=C1CN2Cc3c(ccc4ccccc34)N=C2N1 [Compound 39] | -59% |  |  |  |
| 16 µg/mL (≈ 74.3 µM) | 2 µg/mL (≈ 9.29 µM) | Cc1ccc2c(c1)CN1CCC(=O)NC1=N2 [Compound 23] | -7 ± 2% |  |  |  |
| 1 µg/mL (≈ 4.51 µM) | 0.02 µg/mL (≈ 0.0902 µM) | O=C1CN2Cc3c(Cl)cccc3N=C2N1 [Compound 2, 6-chloro-1,2,3,5-tetrahydroimidazo[2,1-b]quinazolin-2-one] | -37 ± 8% | 2 mg/kg |  |  |
| 0.5 µg/mL (≈ 2.26 µM) | 0.2 µg/mL (≈ 0.902 µM) | O=C1CN2Cc3cc(Cl)ccc3N=C2N1 [Compound 3] | -4 ± 5% | > 10 mg/kg |  |  |
| 0.7 µg/mL (≈ 3.03 µM) | 0.07 µg/mL (≈ 0.303 µM) | O=C1CN2Cc3cc4c(cc3N=C2N1)OCO4 [Compound 18] | -25 ± 12% | > 50 mg/kg |  |  |
|  |  | COc1cccc2c1N=C1NC(=O)CCN1C2 [Compound 27] | 1% |  |  |  |

| EC50 [1] | EC50 [2] | SMILES | change in vivo at 50 mg/kg (blood pressure) | ED50 [3] | In Vivo/In Vitro Dogs P.O. 5 mg./kg. ADP % Inhibition [4] | Blood Pressure % Change Rats P.O. 50 mg./kg. (blood pressure) |
| --- | --- | --- | --- | --- | --- | --- |
| 4 µg/mL (≈ 19.9 µM) | 3 µg/mL (≈ 14.9 µM) | Cc1cccc2c1N=C1NC(=O)CN1C2 [Compound 12] | -22 ± 10% | > 10 mg/kg |  |  |
| 0.4 µg/mL (≈ 1.5 µM) | 0.2 µg/mL (≈ 0.752 µM) | O=C1CN2Cc3cc(Br)ccc3N=C2N1 [Compound 6, 7-Bromo-1,2,3,5-tetrahydroimidazo[2,1-b]-quinazolin-2-one] | -8 ± 3% | 5 mg/kg |  |  |
| 0.09 µg/mL (≈ 0.382 µM) | 0.012 µg/mL (≈ 0.0509 µM) | Cc1c(Cl)ccc2c1CN1CC(=O)NC1=N2 [Compound 45, 7-Chloro-6-methyl-1,2,3,5-tetrahydroimidazo[2,1-b]quinazolin-2-one] |  |  | 46 ±8% |  |
| 6 µg/mL (≈ 32.1 µM) | 2 µg/mL (≈ 10.7 µM) | O=C1CN2Cc3ccccc3N=C2N1 [Compound 1, 1,2,3,5-tetrahydroimidazo [2,1-b]-quinazolin-2-one] | -36 ± 6% | > 72 mg/kg |  |  |
| 1 µg/mL (≈ 4.6 µM) | 0.2 µg/mL (≈ 0.921 µM) | COc1ccc2c(c1)CN1CC(=O)NC1=N2 [Compound 14, 7-methoxy-1,2,3,5-tetrahydroimidazo[2,1-b]quinazolin-2-one] | -19 ± 4% | 4 mg/kg | 17% |  |
| 3 µg/mL (≈ 13.9 µM) | 0.3 µg/mL (≈ 1.39 µM) | Cc1cccc2c1CN1CCC(=O)NC1=N2 [Compound 22] | -26 ± 9% | > 10 mg/kg |  |  |
| 6 µg/mL (≈ 25.9 µM) | 1.5 µg/mL (≈ 6.49 µM) | COc1ccc2c(c1)CN1CCC(=O)NC1=N2 [Compound 26] | -19 ± 6% | > 10 mg/kg |  |  |
|  | 32 µg/mL (≈ 122 µM) | COc1cc2c(cc1OC)N=C1NC(=O)CCN1C2 [Compound 28] | 7% |  |  |  |
| 7 µg/mL (≈ 31.6 µM) | 0.3 µg/mL (≈ 1.35 µM) | O=C1CN2Cc3cccc(Cl)c3N=C2N1 [Compound 5] | -10 ± 1% | 6 mg/kg |  |  |
| 6 µg/mL (≈ 29.2 µM) | 2 µg/mL (≈ 9.75 µM) | O=C1CN2Cc3ccc(F)cc3N=C2N1 [Compound 7] | -27 ± 3% | > 10 mg/kg |  |  |
| 2 µg/mL (≈ 8.61 µM) | 0.2 µg/mL (≈ 0.861 µM) | O=C1CN2Cc3cc([N+](=O)[O-])ccc3N=C2N1 [Compound 8, 7-Nitro-1,2,3,5-tetrahydroimidazo-[2,1-b]quinazolin-2-one] | 5 ± 2% | > 10 mg/kg |  |  |
| 0.5 µg/mL (≈ 2.3 µM) | 0.2 µg/mL (≈ 0.921 µM) | COc1cccc2c1CN1CC(=O)NC1=N2 [Compound 13, 6-methoxy-1,2,3,5-tetrahydroimidazo-[2,1-b]quinazolin-2-one] | -20 ± 14% | 4 mg/kg | 19% |  |
| 25 µg/mL (≈ 124 µM) | 4 µg/mL (≈ 19.9 µM) | O=C1CCN2Cc3ccccc3N=C2N1 [Compound 19, 6-[H]-1,2,3,4-Tetrahydropyrimido[2,1-b]-quinazolin-2-one] | -32 ± 4% |  |  |  |
|  |  | COc1cccc2c1N=C1NC(=O)CN1C2 [Compound 15] | -16 ± 3% |  |  |  |
| 3 µg/mL (≈ 10.7 µM) | 1.5 µg/mL (≈ 5.35 µM) | O=C1CCN2Cc3cc(Br)ccc3N=C2N1 [Compound 21, 8-Bromo-6-[H]-1,2,3,4-tetrahydropyrimido[2,1-b]quinazolin-2-one] |  | 9 mg/kg |  | Toxic |
| 50 µg/mL (≈ 247 µM) | 6 µg/mL (≈ 29.7 µM) | Nc1ccc2c(c1)CN1CC(=O)NC1=N2 [Compound 9, 7-Amino-1,2,3,5-tetrahydroimidazo-[2,1-b]quinazolin-2-one] | -10 ± 14% |  |  |  |
